Experimental findings from patent publication US20230416256A1, “SMALL MOLECULE INHIBITORS OF NF-kB INDUCING KINASE” (Janssen Pharmaceutica NV, priority 2020, published 2023) are described below.

Each structure is given as a SMILES string. Where two headings read alike, the source gives them in different places. Some results are limits rather than exact numbers.

The target of assay [1] is recombinant human NF-kappaB-inducing kinase (NIK/MAP3K14) (Homo sapiens, UniProt Q99558). As to the kind of experiment: Inhibition of auto-phosphorylation of recombinant human NIK/MAP3K14 activity (AlphaScreen). It counts as biochemical. The following applies: GST-tagged NIK/MAP3K14 1 nM, 5 μM ATP, 2 h at 25° C.; average of values obtained. The method, boiled down:
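GST-tagged NIK (1 nM) auto-phosphorylated for 2 h at 25 °C with 5 μM ATP in 50 mM Tris pH 7.5, 5 mM MgCl2, 0.7% DMSO. Phospho-Ser176/180 was detected by AlphaScreen using an anti-phospho-IKK antibody. IC50 came from sigmoidal fits of % inhibition versus high (full activity) and low (no ATP) controls.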

For assay [2], the system named is p-IKKα levels in L363 (NIK translocated multiple myeloma) cells. The experiment in a line: Effect of compounds on p-IKKα levels in L363 cells (AlphaLISA SureFire Ultra). It counts as cell-based, human. The settings on record: Homo sapiens, 10 μM MG132, 6 h, average of values obtained, read-out: Assay 2 IC50. The method, boiled down: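 L363 cells were BAFF-stimulated overnight (250 ng/ml) in DMEM/0.5% BSA, then exposed to an 11-point 1:3 compound series (0.3% DMSO) with BAFF and 10 μM MG132 for 6 h at 37 °C. p-IKKα (Ser176/180) was measured by AlphaLISA SureFire Ultra. IC50 was fitted from % inhibition normalized to stimulated and unstimulated controls.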

[3] abbreviates: L-363, 6 h, 250 ng/ml BAFF stimulated.
Setting [4] is: L-363, 250 ng/ml BAFF stimulated.

Sequence of recombinant human NF-kappaB-inducing kinase (NIK/MAP3K14) (Q99558 whole entry): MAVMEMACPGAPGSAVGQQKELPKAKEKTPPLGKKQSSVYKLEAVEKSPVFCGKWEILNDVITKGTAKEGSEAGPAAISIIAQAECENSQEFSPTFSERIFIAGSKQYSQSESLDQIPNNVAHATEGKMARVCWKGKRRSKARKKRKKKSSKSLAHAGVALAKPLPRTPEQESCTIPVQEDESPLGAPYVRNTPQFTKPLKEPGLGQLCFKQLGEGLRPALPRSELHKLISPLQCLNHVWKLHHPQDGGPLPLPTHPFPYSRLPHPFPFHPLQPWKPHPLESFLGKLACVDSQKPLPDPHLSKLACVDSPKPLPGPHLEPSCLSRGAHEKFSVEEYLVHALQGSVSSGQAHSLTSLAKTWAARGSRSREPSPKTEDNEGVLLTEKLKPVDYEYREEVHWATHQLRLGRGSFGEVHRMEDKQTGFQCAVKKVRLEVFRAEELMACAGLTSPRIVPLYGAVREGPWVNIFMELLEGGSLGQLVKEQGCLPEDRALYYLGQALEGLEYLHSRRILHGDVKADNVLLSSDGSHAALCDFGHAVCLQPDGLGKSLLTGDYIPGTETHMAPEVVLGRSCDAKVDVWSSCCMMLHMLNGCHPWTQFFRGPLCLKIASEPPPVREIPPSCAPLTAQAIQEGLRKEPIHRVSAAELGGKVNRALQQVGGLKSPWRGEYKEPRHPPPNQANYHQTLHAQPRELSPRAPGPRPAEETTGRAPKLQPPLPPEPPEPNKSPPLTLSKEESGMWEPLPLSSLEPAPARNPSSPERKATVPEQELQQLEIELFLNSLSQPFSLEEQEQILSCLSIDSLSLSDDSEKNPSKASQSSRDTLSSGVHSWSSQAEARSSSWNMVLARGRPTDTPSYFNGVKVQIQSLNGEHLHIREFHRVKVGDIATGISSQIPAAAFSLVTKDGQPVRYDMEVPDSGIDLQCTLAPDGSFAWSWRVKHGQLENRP

For the compound `CS(=O)(=O)c1cnc2[nH]cc(-c3nc(-c4cccc([C@]5(O)CCn6ccnc65)c4)cs3)c2c1` [Example 28, (R)-7-(3-(2-(5-(Methylsulfonyl)-1H-pyrrolo[2,3-b]pyridin-3-yl)thiazol-4-yl)phenyl)-6,7-dihydro-5H-pyrrolo[1,2-a]imidazol-7-ol], the IC50 (usually the concentration at which inhibition is half-maximal) was at most 100 nM in assay [1] and 100 to 500 nM in assay [2] (setting [3]).
For `C[C@@]1(O)C[C@@](O)(c2cccc(-c3csc(-c4c[nH]c5ncccc45)n3)c2)c2ncccc21` [Example 106, (5R,7R)-7-(3-(2-(1H-Pyrrolo[2,3-b]pyridin-3-yl)thiazol-4-yl)phenyl)-5-methyl-6,7-dihydro-5H-cyclopenta[b]pyridine-5,7-diol], the IC50 in assay [1] and in assay [2] (setting [3]) was above 500 nM each time.
`O=C1N(CC(F)(F)F)CC[C@]1(O)c1cccc(-c2csc(-c3c[nH]c4nccnc34)n2)c1` [Example 43, (S)-3-(3-(2-(5H-Pyrrolo[2,3-b]pyrazin-7-yl)thiazol-4-yl)phenyl)-3-hydroxy-1-(2,2,2-trifluoroethyl)pyrrolidin-2-one]: the half-maximal inhibitory concentration (IC50) in assay [1] and in assay [2] (setting [4]) was above 500 nM throughout.
`O[C@H]1C[C@](O)(c2cccc(-c3csc(-c4c[nH]c5ncccc45)n3)c2)c2ncccc21` (single isomer, unassigned) [Example 102]: the IC50 in assay [1] and in assay [2] (setting [3]) was above 500 nM throughout.
Take `Cc1cc(-c2csc(-c3c[nH]c4nccnc34)n2)cc([C@]2(O)CCN(C)C2=O)c1` [Example 68, (R)-3-(3-(2-(5H-Pyrrolo[2,3-b]pyrazin-7-yl)thiazol-4-yl)-5-methylphenyl)-3-hydroxy-1-methylpyrrolidin-2-one]: the IC50 in assay [1] is at most 100 nM; in assay [2] (setting [4]) it was above 500 nM.
Take `C[C@@](O)(c1cccc(-c2csc(-c3c[nH]c4nccnc34)n2)c1)c1ncc[nH]1` (single isomer, unassigned) [Example 77]: the IC50 in assay [1] and in assay [2] (setting [3]) was above 500 nM each time.
As for `CN1CC[C@](O)(c2cccc(-c3csc(-c4c[nH]c5ncncc45)n3)c2)C1=O` (single isomer, unassigned) [Example 52], the concentration for half-maximal inhibition (IC50) in assay [1] is 100 to 500 nM; in assay [2] (setting [4]), above 500 nM.
As to `CN1CC[C@@](O)(c2cccc(-c3cc(-c4c[nH]c5ncccc45)co3)c2)C1=O` [Example 115, (R)-3-(3-(4-(1H-Pyrrolo[2,3-b]pyridin-3-yl)furan-2-yl)phenyl)-3-hydroxy-1-methylpyrrolidin-2-one], the IC50 in assay [1] and in assay [2] (setting [4]) was above 500 nM in each case.
For `CN1CC[C@@](O)(c2cccc(-c3csc(-c4c(F)[nH]c5ncc(F)cc45)n3)c2)C1=O` [Example 110, (R)-3-(3-(2-(2,5-Difluoro-1H-pyrrolo[2,3-b]pyridin-3-yl)thiazol-4-yl)phenyl)-3-hydroxy-1-methylpyrrolidin-2-one], the IC50 in assay [1] was 100 to 500 nM; in assay [2] (setting [4]), above 500 nM.
The matching figures for `CN1CC[C@@](O)(c2cccc(-c3csc(-c4c(F)[nH]c5ncccc45)n3)c2)C1=O` [Example 57, (R)-3-(3-(2-(2-Fluoro-1H-pyrrolo[2,3-b]pyridin-3-yl)thiazol-4-yl)phenyl)-3-hydroxy-1-methylpyrrolidin-2-one]: 100 to 500 nM and above 500 nM.
Turning to `[2H]c1[nH]c2nccnc2c1-c1nc(-c2cccc([C@]3(O)CCn4ccnc43)c2)cs1` [Example 62, (R)-7-(3-(2-(5H-Pyrrolo[2,3-b]pyrazin-7-yl-6-d)thiazol-4-yl)phenyl)-6,7-dihydro-5H-pyrrolo[1,2-a]imidazol-7-ol], the IC50 in assay [1] and in assay [2] (setting [3]) was at most 100 nM each time.
With `CN1CC[C@@](O)(c2cccc(-c3nc(-c4c(Cl)cnc5[nH]ccc45)cs3)c2)C1=O` [Example 130, (R)-3-(3-(4-(5-Chloro-1H-pyrrolo[2,3-b]pyridin-4-yl)thiazol-2-yl)phenyl)-3-hydroxy-1-methylpyrrolidin-2-one], the IC50 in assay [1] and in assay [2] (setting [4]) was above 500 nM throughout.
Consider `O[C@]1(c2cccc(-c3csc(-c4c[nH]c5nccnc45)n3)c2)CCn2ccnc21` [Example 42, (S)-7-(3-(2-(5H-Pyrrolo[2,3-b]pyrazin-7-yl)thiazol-4-yl)phenyl)-6,7-dihydro-5H-pyrrolo[1,2-a]imidazol-7-ol], for which the concentration for half-maximal inhibition (IC50) in assay [1] is 100 to 500 nM; in assay [2] (setting [3]) it was above 500 nM.
As to `O[C@@]1(c2cccc(-c3csc(-c4c[nH]c5ncncc45)n3)c2)CCn2ccnc21` [Example 20, (R)-7-(3-(2-(7H-Pyrrolo[2,3-d]pyrimidin-5-yl)thiazol-4-yl)phenyl)-6,7-dihydro-5H-pyrrolo[1,2-a]imidazol-7-ol], the IC50 in assay [1] and in assay [2] (setting [3]) was at most 100 nM each time.
Take `CN1CC[C@@](O)(c2cccc(-c3csc(-c4n[nH]c5ncccc45)n3)c2)C1=O` [Example 100, (R)-3-(3-(2-(1H-Pyrazolo[3,4-b]pyridin-3-yl)thiazol-4-yl)phenyl)-3-hydroxy-1-methylpyrrolidin-2-one]: the IC50 in assay [1] and in assay [2] (setting [4]) was above 500 nM each time.
With `CN1CC[C@@](O)(c2cccc(-n3cnc(-c4c[nH]c5ncccc45)c3)c2)C1=O` (single isomer, unassigned) [Example 124], the IC50 in assay [1] and in assay [2] (setting [4]) was above 500 nM in each case.
In the case of `Cc1cnc2[nH]cc(-c3nc(-c4cccc([C@]5(O)CCN(C)C5=O)c4)cs3)c2c1` [Example 7, (R)-3-Hydroxy-1-methyl-3-(3-(2-(5-methyl-1H-pyrrolo[2,3-b]pyridin-3-yl)thiazol-4-yl)phenyl)pyrrolidin-2-one], the 50% inhibitory concentration (IC50) in assay [1] was at most 100 nM; in assay [2] (setting [4]), 100 to 500 nM.
With `Cc1cnc2[nH]c(C)c(-c3nc(-c4cccc([C@]5(O)CCN(C)C5=O)c4)cs3)c2c1` [Example 74, (R)-3-(3-(2-(2,5-Dimethyl-1H-pyrrolo[2,3-b]pyridin-3-yl)thiazol-4-yl)phenyl)-3-hydroxy-1-methylpyrrolidin-2-one], the IC50 in assay [1] and in assay [2] (setting [4]) was above 500 nM in each case.
Turning to `Cc1ccc2[nH]cc(-c3nc(-c4cccc([C@]5(O)CCN(C)C5=O)c4)cs3)c2n1` [Example 113, (R)-3-Hydroxy-1-methyl-3-(3-(2-(5-methyl-1H-pyrrolo[3,2-b]pyridin-3-yl)thiazol-4-yl)phenyl)pyrrolidin-2-one], the IC50 in assay [1] is 100 to 500 nM; in assay [2] (setting [4]) it was above 500 nM.
Regarding `CN1CC[C@@](O)(c2cccc(-c3nc(-c4c(F)[nH]c5ncccc45)cs3)c2)C1=O` [Example 56, (R)-3-(3-(4-(2-Fluoro-1H-pyrrolo[2,3-b]pyridin-3-yl)thiazol-2-yl)phenyl)-3-hydroxy-1-methylpyrrolidin-2-one], the 50% inhibitory concentration (IC50) in assay [1] is 100 to 500 nM; in assay [2] (setting [4]) it was above 500 nM.
`O[C@@]1(c2cccc(-c3csc(-c4c[nH]c5nccnc45)n3)c2)C=Cn2ccnc21` [Example 13, (R)-7-(3-(2-(5H-Pyrrolo[2,3-b]pyrazin-7-yl)thiazol-4-yl)phenyl)-7H-pyrrolo[1,2-a]imidazol-7-ol]: the half-inhibitory concentration (IC50) in assay [1] was at most 100 nM; in assay [2] (setting [3]) it was above 500 nM.
In the case of `Cc1noc2c1CC[C@@]2(O)c1cccc(-c2csc(-c3c[nH]c4ncccc34)n2)c1` (single isomer, unassigned) [Example 126], the results for the half-inhibitory concentration (IC50) in assay [1] and in assay [2] (setting [3]) were at most 100 nM and above 500 nM, respectively.
Consider `Cc1ccc(-c2csc(-c3c[nH]c4nccnc34)n2)cc1[C@]1(O)CCN(C)C1=O` [Example 69, (R)-3-(5-(2-(5H-Pyrrolo[2,3-b]pyrazin-7-yl)thiazol-4-yl)-2-methylphenyl)-3-hydroxy-1-methylpyrrolidin-2-one], for which the figures for the IC50 in assay [1] and in assay [2] (setting [4]) were 100 to 500 nM and above 500 nM, respectively.
